The values below come from US6455590B1, “Deprenyl compounds for treatment of glaucoma” (University of Toronto Innovations.Foundation, priority 1995, dated 2002).

One series concerns cell death. Description: Animal and cell-culture studies of prevention of cell death with the P450 inhibitor Proadifen. As to conditions: co-administration of the P450 inhibitor Proadifen. From the text:
It is believed that certain deprenyl compounds can be at least partially metabolized in vivo after administration to a subject. For example, (−)-deprenyl can be metabolized by the liver to (−)-desmethyldeprenyl, as well as (−)-methamphetamine and (−)-amphetamine, after oral administration. The hepatic metabolism of (−)-deprenyl can be inhibited by administration of a P450 inhibitor such as Proadifen. […] It is presently believed that (−)-methamphetamine and (−)-amphetamine are inhibitors of the cell-rescuing activity of deprenyl compounds. […] Absence of MAO inhibitor activity may in fact provide a drug with fewer side effects.

In series [1] the test system is retinal ganglion cells projecting to the superior colliculus (RGC^SCs) / RGCL neuronal cell bodies. Description: Optic nerve crush in rats: counts of Nissl-stained and Fluoro-Gold-labelled cell bodies in the retinal ganglion cell layer. Format: in vivo. To be noted: for counts of RGCL neuronal cell bodies (RGCLncbs) per mm length of retinal cross-section: Nissl stain, FIG. 1. From the text: All animals were handled according to the Declaration of Helsinki and The Guiding Principles in the Care and Use of Animals. […] The injections were delivered from a 10 microliter Hamilton syringe over a period of fifteen minutes.
It has been reported that 40-50% of the neurons whose cell bodies are located in the retinal ganglion cell layer (RGCL) of the rat send an axon to the optic nerve and are RGCs (Cowey et al. (1979) Exp. Brain Res. 35, 457-64; Perry V. H. (1981) Neuroscience 6, 931-44: and Linden et al. (1989) Brain Res. 272, 145-149). […] Most RGCs (>95%) in rats send their axons to the SC with as many as 10% also sending branches to the lateral geniculate body (Cowey et al. (1979) Exp. Brain Res. 35, 457-64).
Four days were allowed for the retrograde transport of the FG to the RGC^SCs cell bodies and then the left optic nerve of the rats was exposed and crushed by applying the tips of Dumont number 5 forceps to the nerve immediately behind the globe for ten seconds. Careful attention was used to avoid the central retinal artery. Each nerve was crushed three times at the same site. Following the crushes, the nerve was examined with the aid of an operating microscope to ensure that the axonal component of the nerve was divided into two clearly separated stumps surrounded by an unbroken dural sheath. Retinal artery patency was confirmed by direct ophthalmoscopy.
One group of eight rats received (−)-deprenyl (1 mg/kg) by intraperitoneal (IP) injection every two days for a fourteen day period beginning at the time of optic nerve crush. The remaining group of eight rats received IP injections of saline on the same schedule. Fourteen days after the optic nerve crush all sixteen rats were euthanized with an overdose of somnotol and perfused transcardially with 4% paraformaldehyde in phosphate buffer. The brains and retinas were immersed in 20% sucrose for twenty four hours and then frozen in −70 degrees C methylbutane. Serial […] sections were cut through the upper brain stem and diencephalon of the animals and viewed under fluorescence microscopy to determine the location and extent of the stereotactic injections of FG. Serial […] sections of the retinas were cut and every third section was Nissl stained. In order to detect even low level FG fluorescence in neuronal cell bodies or processes, the FG labelled brain sections and the retinal sections were examined with the aid of a Hamarmatsu intensification camera that allowed the fluorescent images to be digitized using a Matrox frame grabber controlled by image analysis software (Universal Metamorph). This allowed for the creation of computer images of neuronal cell bodies containing FG in the sections taken from areas of the stereotactic injections and sections taken through each of the retinas.
About 25 sections were chosen randomly from the serial sections taken from each retina. Sections were only chosen from the middle 70% of the serial sections where section length exceeded 6 mm. Nissl stained cell bodies in the RGCL were counted at 1000× magnification under oil immersion on a Leitz Orthoplan microscope. RGCL somata were only counted if they contained a well defined nucleus. The cross sectional length of the ganglion cell layer for each section was measured by transferring the retinal section image into a computer using a CCD camera (Dage Ltd.) and IPPLUS 2.1 software (Media Cybernetics). The number of RGCL neuronal cell bodies (RGCLncbs) per mm length of retinal crossection was calculated and were pooled for each of the four lesion/treatment groups (uncrushed-saline, uncrushed-deprenyl, crushed-saline and crushed-deprenyl).
A similar group of sections were randomly chosen from one of the two remaining series of retinal sections. […]

Series [2] can be described thus: Stability of deprenyl as a function of the pH of the medium. Format: physicochemical. As to conditions: pH about 3-5 versus pH about 7. From the text:
The stability of deprenyl can be affected by the pH of the medium in which the deprenyl is formulated. […] Therefore, when formulating a deprenyl compound in a pharmaceutical composition, it is preferred that the deprenyl compound be maintained at a suitable pH. In preferred embodiments, a pharmaceutical composition of the invention has a pH in the range of about 3 to about 5, more preferably about 3 to about 4. Furthermore, ethyl alcohol is a preferred solvent for improving stability of deprenyl. Thus, in certain embodiments, alcoholic or aqueous alcoholic media are preferred for the pharmaceutical compositions of the invention.

Structures are written as SMILES.

As for `C#CCN(C)C(C)Cc1ccccc1` (single isomer, unassigned; (-)) [(−)-deprenyl, N,α-dimethyl-N-2-propynylphenethylamine], the “effect of Proadifen on cell-rescuing activity (prevention of cell death)” value with cell death is given as “Proadifen reduces the ability of (−)-deprenyl to prevent cell death”. The “counts of RGCL neuronal cell bodies (RGCLncbs) per mm length of retinal cross-section” value in series [1] (crushed optic nerve, 14 days after crush, (−)-deprenyl 1 mg/kg IP every two days) is on record as 32.60+/−9.94; in series [1] (uncrushed optic nerve, (−)-deprenyl 1 mg/kg IP every two days for 14 days) it was 48.39+/−8.48 /mm. Also, the “RGC^SCs as percentage of the mean value of the distribution for the uncrushed saline retinas” value in series [1] (crushed optic nerve, 14 days, crushed saline 3.0%, FIG. 3) was 36.9+/−11.2%. For the same compound, the “numbers of neuronal cell bodies/mm in the RGCL as average percent of those in uncrushed saline retinae” value in series [1] (crushed optic nerve, 14 days, crushed saline 46%) came to 65%. The “slope of FG labelled versus Nissl stained cell body counts” value in series [1] (crushed retinas, FIG. 2) is given as 0.219+/−0.019. In series [1] (crushed retinas, crushed saline 0.003), the “mean ratio of FG labelled to Nissl stained somata” value is recorded as 0.245+/−0.055. Also, the “survival of RGCs at fourteen days” value in series [1] (crushed retinas, estimated assuming 40-50% of RGCL neurons do not send axons to the optic nerve, crushed saline less than 10%) was 30-40%. For the same compound, the “stability depending on pH of the medium” value in series [2] is on record as “more stable at a pH in the range of about 3-5 than at a pH of about 7”.

For `C#CCN[C@H](C)Cc1ccccc1` [(−)-desmethyldeprenyl], the “effect of Proadifen on cell-rescuing activity (prevention of cell death)” value in the series on cell death was “does not block the cell-rescuing activity”.
